Data set [1] deals with HCT-116. Description: Induction of apoptosis in p53 +/+ human HCT116 cells assessed as DNA fragmentation at 13.2 uM incubated for 24 hrs by agarose gel electrophoresis. In kind it is functional, cell-based.
In data set [2] the target is T1, DNA polymerase delta catalytic subunit (Homo sapiens, UniProt P28340).
T1 sequence (P28340 whole entry): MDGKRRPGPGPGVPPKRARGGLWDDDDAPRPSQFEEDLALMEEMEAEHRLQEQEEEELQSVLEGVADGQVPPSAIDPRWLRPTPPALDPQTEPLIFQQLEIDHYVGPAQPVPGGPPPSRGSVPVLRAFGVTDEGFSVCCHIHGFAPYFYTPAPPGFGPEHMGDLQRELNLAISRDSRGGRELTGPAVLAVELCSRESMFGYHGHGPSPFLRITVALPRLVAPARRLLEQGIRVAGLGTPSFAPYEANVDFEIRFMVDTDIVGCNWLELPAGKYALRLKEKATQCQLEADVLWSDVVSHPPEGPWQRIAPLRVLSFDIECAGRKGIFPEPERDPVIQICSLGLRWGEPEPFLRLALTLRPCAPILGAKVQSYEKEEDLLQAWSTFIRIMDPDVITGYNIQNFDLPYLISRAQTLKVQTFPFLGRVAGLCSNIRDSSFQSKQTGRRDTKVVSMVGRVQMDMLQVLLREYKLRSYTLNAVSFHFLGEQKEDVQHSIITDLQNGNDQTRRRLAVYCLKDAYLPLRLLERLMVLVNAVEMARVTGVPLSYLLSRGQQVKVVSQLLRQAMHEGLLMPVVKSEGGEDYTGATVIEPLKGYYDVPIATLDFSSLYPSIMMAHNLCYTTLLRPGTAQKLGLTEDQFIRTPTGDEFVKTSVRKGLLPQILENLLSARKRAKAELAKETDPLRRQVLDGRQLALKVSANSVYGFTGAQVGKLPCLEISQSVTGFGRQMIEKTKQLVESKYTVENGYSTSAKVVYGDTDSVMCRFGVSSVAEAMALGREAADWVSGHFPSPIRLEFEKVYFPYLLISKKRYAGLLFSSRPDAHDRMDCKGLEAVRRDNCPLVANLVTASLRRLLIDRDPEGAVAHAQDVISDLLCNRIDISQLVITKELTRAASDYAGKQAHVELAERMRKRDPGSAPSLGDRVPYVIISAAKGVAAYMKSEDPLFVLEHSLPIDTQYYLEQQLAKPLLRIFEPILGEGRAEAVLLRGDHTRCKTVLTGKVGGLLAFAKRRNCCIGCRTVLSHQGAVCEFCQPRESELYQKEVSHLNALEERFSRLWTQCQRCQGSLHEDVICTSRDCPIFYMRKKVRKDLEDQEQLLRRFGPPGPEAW
The data set is described as follows: Inhibition of human DNA polymerase delta using poly(dA)/oligo(dT)18 (A/T, 2/1)/dTTP DNA template-primer substrate measured at 37 degC for 60 mins.

The subject of data set [3] is HCT-116. Description: Induction of apoptosis in p53 +/+ human HCT116 cells assessed as apoptotic cells at 13.2 uM incubated for 24 hrs by TUNEL analysis. In kind it is functional.
The subject of data set [4] is HCT-116. Description: Cytotoxicity against MMS-induced p53 +/+ human HCT116 cells assessed as reduction in clonogenic survival at 13.2 uM incubated for 24 hrs by WST-1 assay relative to control. In kind it is functional.
Data set [5] can be described thus: Inhibition of human DNA polymerase epsilon using poly(dA)/oligo(dT)18 (A/T, 2/1)/dTTP DNA template-primer substrate measured at 37 degC for 60 mins.
Data set [6] in a line: Cytotoxicity against human dermal fibroblasts. The following applies: hdf.
The target in data set [7] is DNA-directed DNA/RNA polymerase mu (Homo sapiens, UniProt Q9NP87). Description: Inhibition of human DNA polymerase mu using poly(dA)/oligo(dT)18 (A/T, 2/1)/dTTP DNA template-primer substrate measured at 37 degC for 60 mins.
In data set [8] the test system is HCT-116. The data set is described as follows: Induction of apoptosis in p53 -/- human HCT116 cells assessed as apoptotic cells at 13.7 uM incubated for 24 hrs by TUNEL analysis. In kind it is functional, cell-based.

What is called pIC50 is the negative decadic logarithm of the IC50, by convention in mol/L. Read a high pIC50 as a low IC50.

The structures appear in SMILES notation. pIC50: −log10 of the molar value. Calls of active or inactive are those of the source. The rule behind the calls is not given here. A value given as a limit tells only on which side of the number the result lay.

Chain of DNA-directed DNA/RNA polymerase mu (Q9NP87 whole entry): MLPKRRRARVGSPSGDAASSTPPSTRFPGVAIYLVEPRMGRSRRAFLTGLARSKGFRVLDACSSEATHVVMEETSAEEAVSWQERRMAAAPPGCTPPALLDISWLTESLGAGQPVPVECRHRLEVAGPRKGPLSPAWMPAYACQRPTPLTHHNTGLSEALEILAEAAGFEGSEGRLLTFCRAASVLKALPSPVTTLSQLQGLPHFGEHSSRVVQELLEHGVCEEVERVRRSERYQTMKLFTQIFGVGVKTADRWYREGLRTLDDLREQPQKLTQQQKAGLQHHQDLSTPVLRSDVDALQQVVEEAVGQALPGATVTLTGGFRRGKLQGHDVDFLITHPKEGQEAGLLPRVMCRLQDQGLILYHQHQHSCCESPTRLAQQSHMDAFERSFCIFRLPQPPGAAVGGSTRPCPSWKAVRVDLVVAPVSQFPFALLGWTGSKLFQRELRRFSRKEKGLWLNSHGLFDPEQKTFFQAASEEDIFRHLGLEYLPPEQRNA

Consider `CC[C@H](C)[C@H](NC(=O)[C@H](Cc1ccc(O)cc1)NC(=O)OC(C)(C)C)C(=O)Nc1cccc2ccccc12`, for which the result in data set [1] and in data set [8] was Active. For the same molecule, the negative logarithm of the IC50 (pIC50) in data set [2], in data set [5] and in data set [7] was below 3.70 in each case. Moreover, the “fold change (FC)” value in data set [3] turned out to be 5; in data set [4], 2. Also, the Activity entry in data set [6] is reported as “Non-toxic”.

(Values after ChEMBL document CHEMBL2331167, “Inhibitory effect of novel somatostatin peptide analogues on human cancer cell growth based on the selective inhibition of DNA polymerase β” (Bioorg Med Chem, 2013).)
